In patent publication US20240034743A9, “TRICYCLIC COMPOUNDS AS EGFR INHIBITORS” (QILU PHARMACEUTICAL CO., LTD., priority 2020, published 2024):
pIC50: −log10 of the molar value. Where two headings read alike, the source gives them in different places.

Assays:
EGFR WT (wild type EGFR) = EGFR WT (wild type EGFR) (Homo sapiens (Human), UniProt P00533); experiment: In vitro enzymatic TR-FRET (HTRF KinEASE-TK) kinase assay, EGFR WT; assay type: biochemical; conditions: kinase activity, TR-FRET; read-out: EGFR (WT) IC50
Procedure: (I) In Vitro Enzymatic Experiment for EGFR WT and EGFR L858R/T790M/C797S
In the assay, the inhibition effect of the compound on the kinase activity of EGFR WT (wild type EGFR) and EGFR L858R/T790M/C797S was tested by adopting a time-resolved fluorescence resonance energy transfer (TR-FRET) method, and half maximal inhibitory concentration IC50 of the compound on the kinase activity of EGFR was obtained.
EGFR recombinase and EGFR L858R/T790M/C797S recombinase, purchased from Signalchem.
HTRF KinEASE-TK kit, purchased from Cisbio.
DTT, MnCl2, and MgCl2, purchased from Sigma.
ATP, purchased from Promega.
(§1) Brigatinib, purchased from Selleck.
1) 1× working solution was prepared: 5 mM MgCl2; 1 mM DTT; 1 mM MnCl2 and 1× kinase buffer (in kit).
2) […] of gradiently-diluted compound was transferred to a 384-well plate using Echo 550 (Labcyte).
3) 5 μL of 2× EGFR WT or EGFR L858R/T790M/C797S recombinase solution was added to the 384-well plate, and the plate was incubated at room temperature for 10 min.
4) 5 μL of 2× TK-substrate-biotin substrate solution (containing ATP) was added to the 384-well plate, and the plate was incubated at room temperature for 40 min.
5) 5 μL of assay solution containing Sa-XL 665 HTRF and 5 μL of TK-antibody-Cryptatewas were added to the plate, and the plate was incubated at room temperature for 1 h.
6) The fluorescence signal values at 615 nm and 665 nm were measured for each well using an Envision microplate reader (PerkinElmer).
7) The ratio of fluorescence signal values at 665 nm and 615 nm was calculated for each well.
8) Data analysis was performed using GraphPad Prism software to give the IC50 for compounds.

A431 cells (EGFR WT) = experiment: A431 cell proliferation inhibition assay (CellTiter-Glo); assay type: cell-based; conditions: Homo sapiens; for pIC50: A-431, cell proliferation, 72 h, CellTiter-Glo, read-out: A431 EGFR WT IC50; for IC50: A-431, 72 h, read-out: A431 EGFR WT IC50(nM)
Procedure: A431 Cell Proliferation Inhibition Assay
In the assay, the inhibition effect of the compounds on the proliferation of A431 cells was tested by adopting a CellTiter-Glo method, and the concentration IC50 of the compound for inhibiting half maximal growth of cells was obtained.
A431 cells, purchased from ATCC.
DMEM medium, fetal bovine serum (FBS), and Penicillin-Streptomycin, purchased from GIBCO.
as §1
(§2) CellTiter-Glo reagent, purchased from Promega.
1) A431 cells were seeded in a 384-well plate at a density of 800 cells/well with 30 μL/well, and the plate was cultured in a cell incubator for 24 h (37° C., 5% CO2).
(§3) 2) Day 0: […] of gradiently-diluted compounds to be tested with a final concentration of DMSO of 0.1% was added to plate using Echo, and the plate was incubated in a cell incubator for 72 h (37° C., 5% CO2). […] of DMSO was added into each well in blank control group.
(§4) 3) Day 3: 30 μL Cell Titer-Glo reagent was added to each well, and the plate was in the dark under room temperature for 30 min.
(§5) 4) The chemiluminescent signal was detected by an Envision plate reader (PerkinElmer).
(§6) 5) Data analysis was performed using GraphPad Prism software to give the IC50 for compounds.

[1] = tested on: Ba/F3_Del19/T790M/C797S cells; experiment: Ba/F3_Del19/T790M/C797S cell proliferation inhibition assay (CellTiter-Glo); assay type: cell-based; conditions: Mus musculus; for pIC50: BaF3, cell proliferation, 72 h, CellTiter-Glo, read-out: Ba/F3 (Del19/T790M/C797S) IC50; for IC50: BaF3, 72 h, read-out: Ba/F3 (Del19/T790M/C797S) IC50(nM)
Procedure: Ba/F3_Del19/T790M/C797S Cell Proliferation Inhibition Assay
In the assay, the inhibition effect of the compounds on the proliferation of Ba/F3_Del19/T790M/C797S cells was tested by adopting a CellTiter-Glo method, and the concentration IC50 of the compound for inhibiting half maximal growth of cells was obtained.
Ba/F3_Del19/T790M/C797S, purchased from Kyinno Biotechnology Co., Ltd. 1640 medium, fetal bovine serum (FBS), Penicillin-Streptomyces, and GlutaMAX-I Supplement, purchased from GIBCO.
as §1, §2
1) Ba/F3_Del19/T790M/C797S cells were seeded in a 384-well plate at a density of 700 cells/well with 30 μL/well.
as §3, §4, §5
Data analysis was performed using GraphPad Prism 6 software to give the IC50 for compounds.

[2] = tested on: Ba/F3_L858R/T790M/C797S cells; experiment: Ba/F3_L858R/T790M/C797S cell proliferation inhibition assay (CellTiter-Glo); assay type: cell-based; conditions: Mus musculus; for pIC50: BaF3, cell proliferation, 72 h, CellTiter-Glo, read-out: Ba/F3 (L858R/T790M/C797S) IC50; for IC50: BaF3, 72 h, read-out: Ba/F3 (L858R/T790M/C797S) IC50(nM)
Procedure: Ba/F3_L858R/T790M/C797S Cell Proliferation Inhibition Assay
In the assay, the inhibition effect of the compounds on the proliferation of Ba/F3_L858R/T790M/C797S cells was tested by adopting a CellTiter-Glo method, and the concentration IC50 of the compound for inhibiting half maximal growth of cells was obtained.
Ba/F3_L858R/T790M/C797S cells were constructed by Pharmaron Beijing Co., Ltd.
1640 medium, fetal bovine serum (FBS), Penicillin-Streptomyces, and GlutaMAX-I Supplement, purchased from GIBCO.
as §1, §2
1) Ba/F3_L858R/T790M/C797S cells were seeded in a 384-well plate at a density of 700 cells/well with 30 μL/well.
as §3, §4, §5, §6

Sequence of EGFR WT (wild type EGFR) (P00533 25-1210): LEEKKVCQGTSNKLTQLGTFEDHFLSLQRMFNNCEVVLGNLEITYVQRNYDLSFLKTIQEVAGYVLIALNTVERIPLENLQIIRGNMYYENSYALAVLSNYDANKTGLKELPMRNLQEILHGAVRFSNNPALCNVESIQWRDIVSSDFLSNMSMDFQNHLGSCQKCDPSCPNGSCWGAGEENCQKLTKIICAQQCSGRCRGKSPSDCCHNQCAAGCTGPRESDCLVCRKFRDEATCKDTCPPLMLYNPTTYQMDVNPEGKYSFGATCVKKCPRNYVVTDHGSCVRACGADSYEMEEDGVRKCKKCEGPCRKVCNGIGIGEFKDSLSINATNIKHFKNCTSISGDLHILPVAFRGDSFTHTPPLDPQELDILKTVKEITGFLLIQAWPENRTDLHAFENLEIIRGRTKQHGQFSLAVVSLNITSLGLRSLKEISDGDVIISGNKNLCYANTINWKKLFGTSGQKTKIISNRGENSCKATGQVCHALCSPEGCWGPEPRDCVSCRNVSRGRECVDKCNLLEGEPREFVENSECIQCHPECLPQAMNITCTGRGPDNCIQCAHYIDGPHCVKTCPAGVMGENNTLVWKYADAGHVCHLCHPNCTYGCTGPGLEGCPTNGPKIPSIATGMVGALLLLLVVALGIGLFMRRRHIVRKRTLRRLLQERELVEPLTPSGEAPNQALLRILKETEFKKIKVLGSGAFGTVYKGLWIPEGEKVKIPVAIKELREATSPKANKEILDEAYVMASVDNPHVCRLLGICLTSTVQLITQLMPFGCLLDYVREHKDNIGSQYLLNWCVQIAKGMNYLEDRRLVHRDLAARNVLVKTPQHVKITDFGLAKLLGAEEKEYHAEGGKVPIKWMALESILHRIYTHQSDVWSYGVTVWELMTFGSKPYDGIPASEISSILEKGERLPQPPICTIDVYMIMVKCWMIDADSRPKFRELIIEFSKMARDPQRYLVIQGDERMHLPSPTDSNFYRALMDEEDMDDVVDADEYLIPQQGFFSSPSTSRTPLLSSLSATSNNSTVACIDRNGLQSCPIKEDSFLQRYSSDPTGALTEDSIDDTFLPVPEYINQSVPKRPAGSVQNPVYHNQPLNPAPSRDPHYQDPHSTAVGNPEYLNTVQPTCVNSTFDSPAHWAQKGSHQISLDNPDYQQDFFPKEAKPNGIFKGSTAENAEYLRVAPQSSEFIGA

| SMILES | pIC50 (EGFR WT (wild type EGFR)) | pIC50 (A431 cells (EGFR WT)) | pIC50 [1] | pIC50 [2] | IC50 (A431 cells (EGFR WT)) [nM] | IC50 [1] [nM] | IC50 [2] [nM] |
| --- | --- | --- | --- | --- | --- | --- | --- |
| COc1cc2c(cc1Nc1ncc(Cl)c(Nc3ccccc3P(C)(C)=O)n1)-c1cnn(C)c1CCN2C [Compound 14] | 8.00 to 9.00 | 6.00 to 7.00 | > 8.00 | > 8.00 | – | – | – |
| COc1nc2c(cc1Nc1ncc(Br)c(Nc3ccc4nccnc4c3P(C)(C)=O)n1)-c1cnn(C)c1CCN2 [Compound 52] | 8.00 to 9.00 | 6.00 to 7.00 | > 8.00 | > 8.00 | – | – | – |
| COc1cc2c(cc1Nc1ncc(Br)c(Nc3ccccc3P(C)(C)=O)n1)-c1cnn(C)c1CCC2N (stereo not drawn) [Compound 50] | – | – | – | – | 100 to 1000 | 10 to 50 | 10 to 50 |
| COc1cc2c(cc1Nc1ncc(Br)c(Nc3ccc4nccnc4c3P(C)(C)=O)n1)-c1cnn(C)c1CCN2C1CCN(C2CC(F)(F)C2)CC1 [Compound 96] | 8.00 to 9.00 | 6.00 to 7.00 | > 8.00 | > 8.00 | – | – | – |
| COc1cc2c(cc1Nc1ncc(Br)c(Nc3ccc4nccnc4c3P(C)(C)=O)n1)-c1cnn(C)c1CN(C(C)C)C2 [Compound 72] | 8.00 to 9.00 | – | – | – | 50 to 100 | < 10 | 10 to 50 |
| COc1cc2c(cc1Nc1ncc(Br)c(Nc3ccc4nccnc4c3P(C)(C)=O)n1)-c1cnn(C)c1CCN2C1CCOCC1 [Compound 88] | – | 7.00 to 7.30 | > 8.00 | > 8.00 | – | – | – |
| COc1cc2c(cc1Nc1ncc(Br)c(Nc3ccc4nccnc4c3NC(C)=O)n1)-c1cnn(C)c1CCN2C(C)C [Compound 106] | 8.00 to 9.00 | 6.00 to 7.00 | > 8.00 | 7.30 to 8.00 | – | – | – |
| COc1cc2c(cc1Nc1ncc(Br)c(Nc3ccccc3P(C)(C)=O)n1)-c1cnn(C)c1CCN2C1CN(C)C1 [Compound 59] | – | 6.00 to 7.00 | 7.30 to 8.00 | 7.30 to 8.00 | – | – | – |
| COc1cc2c(cc1Nc1nc(Nc3ccc4nccnc4c3P(C)(C)=O)c3cc[nH]c3n1)-c1cnn(C)c1CCN2C [Compound 60] | 8.00 to 9.00 | 7.30 to 8.00 | > 8.00 | > 8.00 | – | – | – |
| COc1cc2c(cc1Nc1ncc(Br)c(Nc3ccc4nccnc4c3P(C)(C)=S)n1)-c1cnn(C)c1CCN2C1CC2(C1)CN(C)C2 [Compound 93] | – | – | – | – | 10 to 50 | < 10 | 10 to 50 |
| CCN1CCc2c(cnn2C)-c2cc(Nc3ncc(Br)c(Nc4ccc5nccnc5c4NS(C)(=O)=O)n3)c(OC)cc21 [Compound 139] | – | 6.00 to 7.00 | > 8.00 | > 8.00 | – | – | – |
| COc1cc2c(cc1Nc1ncc(Br)c(Nc3ccccc3NS(C)(=O)=O)n1)-c1cnn(C)c1CCN2C [Compound 32] | – | 6.00 to 7.00 | > 8.00 | > 8.00 | – | – | – |
| COc1cc2c(cc1Nc1ncc(Br)c(Nc3ccccc3P(C)(C)=O)n1)-c1cnn(C)c1CCN2C1COC1 [Compound 64] | – | 6.00 to 7.00 | > 8.00 | 7.30 to 8.00 | – | – | – |
| COc1cc2c(cc1Nc1ncc(Br)c(Nc3ccc4nccnc4c3P(C)(C)=O)n1)-c1cnn(C)c1CCN2C [Compound 1] | – | 7.00 to 7.30 | > 8.00 | > 8.00 | – | – | – |
| COc1cc2c(cc1Nc1ncc(Br)c(Nc3ccc4nccnc4c3P(C)(C)=O)n1)-c1cnn(C)c1CCN2C1CN(C(C)C)C1 [Compound 63] | – | 7.30 to 8.00 | > 8.00 | > 8.00 | – | – | – |
| COc1cc2c(cc1Nc1ncc(Br)c(Nc3ccc4nccnc4c3NS(C)(=O)=O)n1)-c1cnn(C)c1CCN2CC(C)C [Compound 133] | – | 6.00 to 7.00 | > 8.00 | > 8.00 | – | – | – |
| COc1cc2c(cc1Nc1ncc(Br)c(Nc3ccc4nccnc4c3P(C)(C)=O)n1)-c1cnn(C)c1CCN2C1CN(CC2CC2)C1 [Compound 70] | – | 7.30 to 8.00 | > 8.00 | > 8.00 | – | – | – |
| COc1cc2c(cc1Nc1ncc(Br)c(Nc3ccc4nccnc4c3P(C)(C)=O)n1)-c1cnn(C)c1CCN2C1CC2(C1)CN(C(C)C)C2 [Compound 90] | – | 7.30 to 8.00 | > 8.00 | > 8.00 | – | – | – |
| COc1cc2c(cc1Nc1ncc(Cl)c(Nc3ccc4nccnc4c3P(C)(C)=O)n1)-c1cnn(C)c1CCN2C [Compound 13] | – | 7.00 to 7.30 | > 8.00 | > 8.00 | – | – | – |
| COc1cc2c(cc1Nc1ncc(Br)c(Nc3ccc4nccnc4c3P(C)(C)=O)n1)-c1cnn(C)c1CCN2C1CC1 [Compound 74] | – | 6.00 to 7.00 | > 8.00 | > 8.00 | – | – | – |
| COc1cc2c(cc1Nc1ncc(Br)c(Nc3ccc4nccnc4c3P(C)(C)=O)n1)-c1cnn(C)c1CCN2C1CCN(C)CC1F (stereo not drawn) [Compound 67] | – | 7.00 to 7.30 | > 8.00 | > 8.00 | – | – | – |
| COc1cc2c(cc1Nc1ncc(Br)c(Nc3ccc4nccnc4c3P(C)(C)=O)n1)-c1cnn(C)c1CCN2C1CCCN(C)C1 (stereo not drawn) [Compound 84] | – | 7.30 to 8.00 | > 8.00 | > 8.00 | – | – | – |
| CNS(=O)(=O)c1ccccc1Nc1nc(Nc2cc3c(cc2OC)N(C(C)C)CCc2c-3cnn2C)ncc1Br [Compound 127] | – | 6.00 to 7.00 | 6.00 to 7.00 | 6.00 to 7.00 | – | – | – |
| COc1cc2c(cc1Nc1ncc(Br)c(Nc3ccc4nccnc4c3P(C)(C)=O)n1)-c1cnn(C)c1CCN2C1CCN(C)CC1 [Compound 62] | – | 7.30 to 8.00 | > 8.00 | > 8.00 | – | – | – |
| COc1cc2c(cc1Nc1ncc(Br)c(Nc3ccc4nccnc4c3P(C)(C)=O)n1)-c1cnn(C)c1CCN2C1CC2(C1)CN(C)C2 [Compound 89] | – | 7.30 to 8.00 | 7.30 to 8.00 | 7.30 to 8.00 | – | – | – |
| COc1cc2c(cc1Nc1ncc(Br)c(Nc3ccc4nccnc4c3P(C)(C)=S)n1)-c1cnn(C)c1CCN2C1CCN(C)CC1 [Compound 76] | – | – | – | – | 50 to 100 | < 10 | < 10 |
| COc1cc2c(cc1Nc1ncc(C)c(Nc3ccc4nccnc4c3P(C)(C)=O)n1)-c1cnn(C)c1CCN2C(C)C [Compound 85] | – | 6.00 to 7.00 | > 8.00 | > 8.00 | – | – | – |
| COc1cc2c(cc1Nc1ncc(Br)c(Nc3ccccc3N(C(C)C)S(C)(=O)=O)n1)-c1cnn(C)c1CCN2C(C)C [Compound 124] | – | < 6.00 | 7.30 to 8.00 | 7.30 to 8.00 | – | – | – |
| COc1cc2c(cc1Nc1ncc(Br)c(Nc3ccccc3P(C)(C)=O)n1)-c1cnn(C)c1CCN2C1CN(CCF)C1 [Compound 69] | – | 6.00 to 7.00 | > 8.00 | > 8.00 | – | – | – |
| COc1cc2c(cc1Nc1ncc(Br)c(Nc3ccc4nccnc4c3NS(C)(=O)=O)n1)-c1cnn(C)c1CCN2 [Compound 114] | – | – | – | – | 100 to 1000 | < 10 | < 10 |
